Measurements: US9346809B2 (LEO PHARMA A/S, priority 2009, dated 2016)

Experiments:
Format in all cases: biochemical
[1] = target: T1, JAK1 (aa 850-1154, catalytic domain, GST-tag) (Homo sapiens, UniProt P23458); assay: JAK kinase assay (HTRF, phosphorylation of TK substrate-biotin), JAK1; settings: HTRF assay, ATP at Km (7 μM); read-out: JAK1 kinase inhibitory activity (EC50 indicator)
T1 construct: JAK1 (aa 850-1154) and TYK2 (aa 871-1187) are expressed with an N-terminally fused GST-tag; GST (N); purchased Carna Biosciences, Inc; host or cells: baculovirus expression system
In short: (§1)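 Catalytic-domain kinases phosphorylated 1 μM biotin-TK substrate at ATP Km (JAK1 7 μM, JAK2 4 μM, JAK3 2 μM, TYK2 13 μM) in Hepes pH 7.0 with DTT and MgCl2, for 20-30 min at RT; JAK1 and TYK2 also had 50 nM SEB. Detection was by HTRF (streptavidin-XL665/Cryptate antibody) overnight, giving EC50.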

[2] = target: T2, JAK2 (catalytic domain, His-tag) (Homo sapiens, UniProt O60674); assay: JAK kinase assay (HTRF, phosphorylation of TK substrate-biotin), JAK2; settings: HTRF assay, ATP at Km (4 μM); read-out: JAK2 kinase inhibitory activity (EC50 indicator)
T2 construct: All four purified enzymes contain only the catalytic domain; His (N); purchased Carna Biosciences, Inc; host or cells: baculovirus expression system
In short: as §1

[3] = target: T3, JAK3 (catalytic domain, His-tag) (Homo sapiens, UniProt P52333); assay: JAK kinase assay (HTRF, phosphorylation of TK substrate-biotin), JAK3; settings: HTRF assay, ATP at Km (2 μM); read-out: JAK3 kinase inhibitory activity (EC50 indicator)
T3 construct: All four purified enzymes contain only the catalytic domain; His (N); purchased Carna Biosciences, Inc; host or cells: baculovirus expression system
In short: as §1

[4] = target: T4, TYK2 (aa 871-1187, catalytic domain, GST-tag) (Homo sapiens, UniProt P29597); assay: JAK kinase assay (HTRF, phosphorylation of TK substrate-biotin), TYK2; settings: HTRF assay, ATP at Km (13 μM); read-out: TYK2 kinase inhibitory activity (EC50 indicator)
T4 construct: JAK1 (aa 850-1154) and TYK2 (aa 871-1187) are expressed with an N-terminally fused GST-tag; GST (N); purchased Carna Biosciences, Inc; host or cells: baculovirus expression system
T4 sequence (P29597 871-1187): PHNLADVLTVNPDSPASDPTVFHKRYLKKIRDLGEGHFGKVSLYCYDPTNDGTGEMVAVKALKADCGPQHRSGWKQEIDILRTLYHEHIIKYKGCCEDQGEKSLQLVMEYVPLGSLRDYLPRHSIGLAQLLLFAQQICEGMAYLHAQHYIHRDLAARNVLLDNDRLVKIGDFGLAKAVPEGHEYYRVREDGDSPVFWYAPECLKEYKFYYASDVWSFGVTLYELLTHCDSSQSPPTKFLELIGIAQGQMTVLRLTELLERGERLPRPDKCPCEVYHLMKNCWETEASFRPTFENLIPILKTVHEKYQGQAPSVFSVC
In short: as §1

T3 sequence (P52333 822-1111 limits assumed): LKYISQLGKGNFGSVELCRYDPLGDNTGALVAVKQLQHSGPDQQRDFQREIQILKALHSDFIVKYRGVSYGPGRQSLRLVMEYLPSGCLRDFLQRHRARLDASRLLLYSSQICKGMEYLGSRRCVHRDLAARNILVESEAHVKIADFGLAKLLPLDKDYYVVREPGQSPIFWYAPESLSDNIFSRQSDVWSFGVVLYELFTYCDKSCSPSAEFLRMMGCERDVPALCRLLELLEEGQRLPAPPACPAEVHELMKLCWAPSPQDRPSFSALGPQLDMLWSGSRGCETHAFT
T1 sequence (P23458 850-1154): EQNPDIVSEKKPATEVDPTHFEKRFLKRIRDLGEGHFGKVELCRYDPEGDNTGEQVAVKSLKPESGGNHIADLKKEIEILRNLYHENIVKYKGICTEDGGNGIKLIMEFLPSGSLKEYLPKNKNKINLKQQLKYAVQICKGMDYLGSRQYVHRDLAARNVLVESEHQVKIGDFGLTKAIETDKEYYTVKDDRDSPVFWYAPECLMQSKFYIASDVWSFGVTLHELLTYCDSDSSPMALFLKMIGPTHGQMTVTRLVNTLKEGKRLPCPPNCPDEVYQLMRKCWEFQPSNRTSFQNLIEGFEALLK
T2 sequence (O60674 849-1124 limits assumed): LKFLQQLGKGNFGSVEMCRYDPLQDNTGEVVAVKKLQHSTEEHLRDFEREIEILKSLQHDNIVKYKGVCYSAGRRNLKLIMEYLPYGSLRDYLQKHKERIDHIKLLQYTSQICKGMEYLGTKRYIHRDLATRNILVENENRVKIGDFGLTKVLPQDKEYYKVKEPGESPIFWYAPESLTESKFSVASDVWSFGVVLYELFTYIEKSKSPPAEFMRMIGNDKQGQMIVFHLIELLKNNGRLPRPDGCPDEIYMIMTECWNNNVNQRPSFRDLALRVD

EC50 [1] | EC50 [2] | EC50 [3] | EC50 [4] | SMILES
< 100 nM | < 100 nM | < 100 nM | < 100 nM | CNS(=O)(=O)c1csc(C(=O)N2CCN(c3ncnc4[nH]ccc34)CC23CC3)c1 [Example 373, 5-[7-(7H-Pyrrolo[2,3-d]pyrimidin-4-yl)-4,7-diaza-spiro[2.5]octane-4-carbonyl]-thiophene-3-sulfonic acid methylamide]
< 100 nM | < 100 nM | < 100 nM | < 100 nM | Cc1sc(C(=O)N2CCN(c3ncnc4[nH]ccc34)CC23CC3)cc1S(N)(=O)=O [Example 374, 2-Methyl-5-[7-(7H-pyrrolo[2,3-d]pyrimidin-4-yl)-4,7-diaza-spiro[2.5]octane-4-carbonyl]-thiophene-3-sulfonic acid amide]
< 100 nM | < 100 nM | < 100 nM | 100 to 500 nM | CNS(=O)(=O)c1cc(C(=O)N2CCN(c3ncnc4[nH]ccc34)CC23CC3)sc1C [Example 375, 2-Methyl-5-[7-(7H-pyrrolo[2,3-d]pyrimidin-4-yl)-4,7-diaza-spiro[2.5]octane-4-carbonyl]-thiophene-3-sulfonic acid methylamide]
< 100 nM | < 100 nM | < 100 nM | 100 to 500 nM | CNS(=O)(=O)c1csc(C(=O)N2CCN(c3ncnc4[nH]ccc34)CC23CC3)c1C [Example 376, 4-Methyl-5-[7-(7H-pyrrolo[2,3-d]pyrimidin-4-yl)-4,7-diaza-spiro[2.5]octane-4-carbonyl]-thiophene-3-sulfonic acid methylamide]
< 100 nM | < 100 nM | < 100 nM | 100 to 500 nM | CCCNS(=O)(=O)c1ccc(C(=O)N2CCN(c3ncnc4[nH]ccc34)CC23CC3)cc1 [Example 377, N-Propyl-4-[7-(7H-pyrrolo[2,3-d]pyrimidin-4-yl)-4,7-diaza-spiro[2.5]octane-4-carbonyl]-benzenesulfonamide]
< 100 nM | < 100 nM | < 100 nM | < 100 nM | COc1cc(C(=O)N2CCN(c3ncnc4[nH]ccc34)CC23CC3)ccc1S(N)(=O)=O [Example 378, 2-Methoxy-4-[7-(7H-pyrrolo[2,3-d]pyrimidin-4-yl)-4,7-diaza-spiro[2.5]octane-4-carbonyl]-benzenesulfonamide]
< 100 nM | < 100 nM | < 100 nM | 100 to 500 nM | Cc1cc(S(N)(=O)=O)ccc1C(=O)N1CCN(c2ncnc3[nH]ccc23)CC12CC2 [Example 379, 3-Methyl-4-[7-(7H-pyrrolo[2,3-d]pyrimidin-4-yl)-4,7-diaza-spiro[2.5]octane-4-carbonyl]-benzenesulfonamide]
< 100 nM | < 100 nM | < 100 nM | < 100 nM | Cc1cc(C(=O)N2CCN(c3ncnc4[nH]ccc34)CC23CC3)ccc1S(N)(=O)=O [Example 380, 2-Methyl-4-[7-(7H-pyrrolo[2,3-d]pyrimidin-4-yl)-4,7-diaza-spiro[2.5]octane-4-carbonyl]-benzenesulfonamide]
< 100 nM | < 100 nM | 100 to 500 nM | 100 to 500 nM | N#Cc1ccc(C(=O)C(=O)N2CCN(c3ncnc4[nH]ccc34)CC23CC3)cc1 [Example 381, 4-{2-Oxo-2-[7-(7H-pyrrolo[2,3-d]pyrimidin-4-yl)-4,7-diaza-spiro[2.5]oct-4-yl]-acetyl}-benzonitrile]
< 100 nM | < 100 nM | > 500 nM | 100 to 500 nM | CS(=O)(=O)c1ccc(C(=O)N2CCN(c3ncnc4[nH]ccc34)CC23CC3)c(Cl)c1 [Example 382, (2-Chloro-4-methanesulfonyl-phenyl)-[7-(7H-pyrrolo[2,3-d]pyrimidin-4-yl)-4,7-diaza-spiro[2.5]oct-4-yl]-methanone]
< 100 nM | < 100 nM | < 100 nM | < 100 nM | NS(=O)(=O)c1ccc(CCC(=O)N2CCN(c3ncnc4[nH]ccc34)CC23CC3)cc1 [Example 383, 4-{3-Oxo-3-[7-(7H-pyrrolo[2,3-d]pyrimidin-4-yl)-4,7-diaza-spiro[2.5]oct-4-yl]-propyl}-benzenesulfonamide]
< 100 nM | < 100 nM | < 100 nM | < 100 nM | COc1cc(C(=O)N2CCN(c3ncnc4[nH]ccc34)CC23CC3)cs1 [Example 384, (5-Methoxy-thiophen-3-yl)-[7-(7H-pyrrolo[2,3-d]pyrimidin-4-yl)-4,7-diaza-spiro[2.5]oct-4-yl]-methanone]
< 100 nM | < 100 nM | < 100 nM | < 100 nM | O=C(c1cc(O)cs1)N1CCN(c2ncnc3[nH]ccc23)CC12CC2 [Example 385, (4-Hydroxy-thiophen-2-yl)-[7-(7H-pyrrolo[2,3-d]pyrimidin-4-yl)-4,7-diaza-spiro[2.5]oct-4-yl]-methanone]
< 100 nM | < 100 nM | < 100 nM | < 100 nM | COc1csc(C(=O)N2CCN(c3ncnc4[nH]ccc34)CC23CC3)c1 [Example 386, (4-Methoxy-thiophen-2-yl)-[7-(7H-pyrrolo[2,3-d]pyrimidin-4-yl)-4,7-diaza-spiro[2.5]oct-4-yl]-methanone]
< 100 nM | < 100 nM | < 100 nM | 100 to 500 nM | O=C(Cc1cc(Br)cs1)N1CCN(c2ncnc3[nH]ccc23)CC12CC2 [Example 387, 2-(4-Bromo-thiophen-2-yl)-1-[7-(7H-pyrrolo[2,3-d]pyrimidin-4-yl)-4,7-diaza-spiro[2.5]oct-4-yl]-ethanone]
< 100 nM | < 100 nM | < 100 nM | > 500 nM | Cc1ccc(S(N)(=O)=O)cc1C(=O)N1CCN(c2ncnc3[nH]ccc23)CC12CC2 [Example 388, 4-Methyl-3-[7-(7H-pyrrolo[2,3-d]pyrimidin-4-yl)-4,7-diaza-spiro[2.5]octane-4-carbonyl]-benzenesulfonamide]
< 100 nM | < 100 nM | < 100 nM | 100 to 500 nM | COc1cc(S(N)(=O)=O)ccc1C(=O)N1CCN(c2ncnc3[nH]ccc23)CC12CC2 [Example 389, 3-Methoxy-4-[7-(7H-pyrrolo[2,3-d]pyrimidin-4-yl)-4,7-diaza-spiro[2.5]octane-4-carbonyl]-benzenesulfonamide]
< 100 nM | < 100 nM | < 100 nM | < 100 nM | COc1cc(C(=O)N2[C@@H]3CC[C@H]2CN(c2ncnc4[nH]ccc24)C3)ccc1S(N)(=O)=O [Example 390, 2-Methoxy-4-[3-(7H-pyrrolo[2,3-d]pyrimidin-4-yl)-3,8-diaza-bicyclo[3.2.1]octane-8-carbonyl]-benzenesulfonamide]
100 to 500 nM | 100 to 500 nM | 100 to 500 nM | > 500 nM | Cc1cc(S(N)(=O)=O)ccc1C(=O)N1[C@@H]2CC[C@H]1CN(c1ncnc3[nH]ccc13)C2 [Example 391, 3-Methyl-4-[3-(7H-pyrrolo[2,3-d]pyrimidin-4-yl)-3,8-diaza-bicyclo[3.2.1]octane-8-carbonyl]-benzenesulfonamide]
< 100 nM | < 100 nM | < 100 nM | > 500 nM | Cc1cc(C(=O)N2[C@@H]3CC[C@H]2CN(c2ncnc4[nH]ccc24)C3)ccc1S(N)(=O)=O [Example 392, 2-Methyl-4-[3-(7H-pyrrolo[2,3-d]pyrimidin-4-yl)-3,8-diaza-bicyclo[3.2.1]octane-8-carbonyl]-benzenesulfonamide]
< 100 nM | < 100 nM | < 100 nM | 100 to 500 nM | COc1cc(S(N)(=O)=O)ccc1C(=O)N1[C@@H]2CC[C@H]1CN(c1ncnc3[nH]ccc13)C2 [Example 393, 3-Methoxy-4-[3-(7H-pyrrolo[2,3-d]pyrimidin-4-yl)-3,8-diaza-bicyclo[3.2.1]octane-8-carbonyl]-benzenesulfonamide]
< 100 nM | < 100 nM | 100 to 500 nM | 100 to 500 nM | O=C(c1ccc(S(=O)(=O)NCC2CCCO2)cc1)N1CCN(c2ncnc3[nH]ccc23)CC12CC2 (centres unmarked) [Example 394, 4-[7-(7H-Pyrrolo[2,3-d]pyrimidin-4-yl)-4,7-diaza-spiro[2.5]octane-4-carbonyl]-N-(tetrahydro-furan-2-ylmethyl)-benzenesulfonamide]
< 100 nM | < 100 nM | < 100 nM | < 100 nM | N#CCCNS(=O)(=O)c1ccc(C(=O)N2CCN(c3ncnc4[nH]ccc34)CC23CC3)cc1 [Example 395, N-(2-Cyano-ethyl)-4-[7-(7H-pyrrolo[2,3-d]pyrimidin-4-yl)-4,7-diaza-spiro[2.5]octane-4-carbonyl]-benzenesulfonamide]
